Measured values from ChEMBL document CHEMBL5137006, “Synthesis and Characterization of Transition-State Analogue Inhibitors against Human DNA Methyltransferase 1” (J Med Chem, 2022).
Active and inactive are the calls of the source. No cut-off for these calls is given here.

Columns and labels:
[1] = biological target: T1, DNA (cytosine-5)-methyltransferase 1 (Homo sapiens, UniProt P26358); experiment: Inhibition of human recombinant full-length DNMT1 expressed in Sf9 cells assessed as inhibition of methylated dI-dC formation using poly dI-dC and [Me-3H]SAM as substrate incubated for 2 hrs by liquid scintillation counting analysis
T1 sequence (P26358 whole entry): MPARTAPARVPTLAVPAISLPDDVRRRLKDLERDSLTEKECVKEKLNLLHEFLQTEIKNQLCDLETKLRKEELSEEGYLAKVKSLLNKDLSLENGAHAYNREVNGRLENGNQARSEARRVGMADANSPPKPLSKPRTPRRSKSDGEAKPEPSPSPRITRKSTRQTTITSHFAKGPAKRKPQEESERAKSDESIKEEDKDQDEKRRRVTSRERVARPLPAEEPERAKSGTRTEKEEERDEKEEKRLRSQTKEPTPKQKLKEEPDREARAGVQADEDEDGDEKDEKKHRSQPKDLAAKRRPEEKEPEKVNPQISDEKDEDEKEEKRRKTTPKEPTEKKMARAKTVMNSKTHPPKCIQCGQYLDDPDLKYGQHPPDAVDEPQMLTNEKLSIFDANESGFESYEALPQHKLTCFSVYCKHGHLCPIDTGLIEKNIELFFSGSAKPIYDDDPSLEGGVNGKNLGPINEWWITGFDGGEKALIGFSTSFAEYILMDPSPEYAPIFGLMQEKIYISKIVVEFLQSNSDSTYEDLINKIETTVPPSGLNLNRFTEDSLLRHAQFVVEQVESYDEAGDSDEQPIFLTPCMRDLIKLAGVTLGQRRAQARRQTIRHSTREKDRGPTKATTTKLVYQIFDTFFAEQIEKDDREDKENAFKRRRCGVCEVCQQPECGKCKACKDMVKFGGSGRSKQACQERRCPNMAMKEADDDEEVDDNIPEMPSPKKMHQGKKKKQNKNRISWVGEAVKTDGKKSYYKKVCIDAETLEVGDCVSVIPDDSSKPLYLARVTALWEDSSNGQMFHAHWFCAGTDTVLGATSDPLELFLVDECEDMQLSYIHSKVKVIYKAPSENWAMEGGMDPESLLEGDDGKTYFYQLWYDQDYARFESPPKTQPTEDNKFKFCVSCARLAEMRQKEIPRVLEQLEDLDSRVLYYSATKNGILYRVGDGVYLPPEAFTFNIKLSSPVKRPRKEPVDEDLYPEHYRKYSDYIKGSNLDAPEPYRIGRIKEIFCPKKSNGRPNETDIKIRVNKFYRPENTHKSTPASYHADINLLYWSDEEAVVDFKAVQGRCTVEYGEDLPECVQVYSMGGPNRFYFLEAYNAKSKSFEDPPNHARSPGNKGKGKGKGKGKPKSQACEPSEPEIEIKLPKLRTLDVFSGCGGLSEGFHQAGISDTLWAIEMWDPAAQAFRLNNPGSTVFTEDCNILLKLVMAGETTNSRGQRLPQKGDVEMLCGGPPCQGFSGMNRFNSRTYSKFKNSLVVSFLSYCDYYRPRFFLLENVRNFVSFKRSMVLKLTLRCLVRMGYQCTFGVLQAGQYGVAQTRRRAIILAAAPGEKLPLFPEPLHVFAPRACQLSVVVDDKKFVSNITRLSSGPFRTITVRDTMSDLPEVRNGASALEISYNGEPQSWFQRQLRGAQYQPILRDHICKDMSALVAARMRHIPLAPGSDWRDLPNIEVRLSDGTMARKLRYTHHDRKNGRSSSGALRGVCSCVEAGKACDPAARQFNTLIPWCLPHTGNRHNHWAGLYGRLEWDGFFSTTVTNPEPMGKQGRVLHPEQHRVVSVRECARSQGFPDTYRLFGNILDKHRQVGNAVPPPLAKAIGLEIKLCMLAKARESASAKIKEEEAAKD

[2] = biological target: T1, DNA (cytosine-5)-methyltransferase 1; experiment: Inhibition of DNMT1 in human HT-29 cells assessed as reduction of 5-methylcytosine in cellular DNA at 100 uM incubated for 96 hrs by nLC-MS analysis; type: cell-based
[3] = biological target: T1, DNA (cytosine-5)-methyltransferase 1; experiment: (§1) Inhibition of human C-terminal domain DNMT1 catalytic domain (351 to 1600 residues) expressed in Escherichia coli BL21-CodonPlus (DE3)-RIL cells assessed as inhibition of methylated dI-dC formation using poly dI-dC and 8 uM [Me-3H]SAM as substrate incubated for 2 hrs by liquid scintillation counting analysis
[4] = biological target: T1, DNA (cytosine-5)-methyltransferase 1; experiment: as §1, with “6” for “8”
[5] = biological target: T1, DNA (cytosine-5)-methyltransferase 1; experiment: as §1, with “1” for “8”
[6] = biological target: T1, DNA (cytosine-5)-methyltransferase 1; experiment: as §1, with “using 25 ug/ml” for “using”, “and” for “and 8 uM”
[7] = biological target: T1, DNA (cytosine-5)-methyltransferase 1; experiment: as §1, with “using 5 ug/ml” for “using”, “and” for “and 8 uM”
[8] = biological target: T1, DNA (cytosine-5)-methyltransferase 1; experiment: as §1, with “12” for “8”
[9] = biological target: T1, DNA (cytosine-5)-methyltransferase 1; experiment: as §1, with “using 1 ug/ml” for “using”, “and” for “and 8 uM”
[10] = biological target: T1, DNA (cytosine-5)-methyltransferase 1; experiment: Binding affinity to human C-terminal domain DNMT1 catalytic domain ([…] residues) expressed in Escherichia coli BL21-CodonPlus (DE3)-RIL cells by ultrafiltration binding assay

| SMILES | IC50 [1] [µM] | further results |
| --- | --- | --- |
| Nc1nc(=O)n([C@H]2C[C@H](O)[C@@H](CO)O2)cc1CNCC[C@H](N)C(=O)O | 17.2 | – |
| Nc1nc(=O)n([C@H]2C[C@H](O)[C@@H](CO)O2)cc1CCCSC[C@H]1O[C@@H](n2cnc3c(N)ncnc32)[C@H](O)[C@@H]1O | > 100 | – |
| Nc1nc(=O)n([C@H]2C[C@H](O)[C@@H](CO)O2)cc1CCN(CC[C@H](N)C(=O)O)C[C@H]1O[C@@H](n2cnc3c(N)ncnc32)[C@H](O)[C@@H]1O | 10.3 | – |
| Nc1ncn(C2C[C@H](O)[C@@H](CO)O2)c(=O)n1 (stereo not given in full) | – | inhibition [2]: Active |
| NC1=NC(=O)N([C@H]2C[C@H](O)[C@@H](CO)O2)CN1CCCCCN(CC[C@H](N)C(=O)O)C[C@H]1O[C@@H](n2cnc3c(N)ncnc32)[C@H](O)[C@@H]1O | 19.6 | – |
| Nc1nc(=O)n([C@H]2C[C@H](O)[C@@H](CO)O2)cc1CCCNC[C@H]1O[C@@H](n2cnc3c(N)ncnc32)[C@H](O)[C@@H]1O | 10.3 | – |
| Nc1nc(=O)n([C@H]2C[C@H](O)[C@@H](CO)O2)cc1CN(CC[C@H](N)C(=O)O)C[C@H]1O[C@@H](n2cnc3c(N)ncnc32)[C@H](O)[C@@H]1O | 8.5 | – |
| Nc1nc(=O)n([C@H]2C[C@H](O)[C@@H](CO)O2)cc1CSC[C@H]1O[C@@H](n2cnc3c(N)ncnc32)[C@H](O)[C@@H]1O | > 100 | – |
| Nc1nc(=O)n([C@H]2C[C@H](O)[C@@H](CO)O2)cc1CCSC[C@H]1O[C@@H](n2cnc3c(N)ncnc32)[C@H](O)[C@@H]1O | > 100 | – |

The remaining compounds from weak to strong by IC50 [1], led by results:

| IC50 [1] [µM] | SMILES | further results |
| --- | --- | --- |
| 7.2 | Nc1nc(=O)n([C@H]2C[C@H](O)[C@@H](CO)O2)cc1CSCC[C@H](N)C(=O)O | – |
| 3.6 | Nc1nc(=O)n([C@H]2C[C@H](O)[C@@H](CO)O2)cc1SCCN(CC[C@H](N)C(=O)O)C[C@H]1O[C@@H](n2cnc3c(N)ncnc32)[C@H](O)[C@@H]1O | – |
| 2.9 | Nc1nc(=O)n([C@H]2C[C@H](O)[C@@H](CO)O2)cc1CCCN(CC[C@H](N)C(=O)O)C[C@H]1O[C@@H](n2cnc3c(N)ncnc32)[C@H](O)[C@@H]1O | – |
| 2.7 | Nc1nc(=O)n([C@H]2C[C@H](O)[C@@H](CO)O2)cc1CNCCCC[C@H](N)C(=O)O | – |
| 1.2 | Nc1nc(=O)n([C@H]2C[C@H](O)[C@@H](CO)O2)cc1CNCC(CC[C@H](N)C(=O)O)C[C@H]1O[C@@H](n2cnc3c(N)ncnc32)[C@H](O)[C@@H]1O (stereo not given in full) | IC50 [3]: 6.7 µM; IC50 [4]: 6.1 µM; IC50 [5]: 3.5 µM; IC50 [6]: 5.4 µM; IC50 [7]: 5.1 µM; IC50 [8]: 8.7 µM; IC50 [9]: 4 µM; Kd [10]: 7.3 µM |
| 1.1 | Nc1nc(=O)n([C@H]2C[C@H](O)[C@@H](CO)O2)cc1CSCCCC[C@H](N)C(=O)O | – |
| 0.9 | Nc1nc(=O)n([C@H]2C[C@H](O)[C@@H](CO)O2)cc1CSCCC[C@H]1O[C@@H](n2cnc3c(N)ncnc32)[C@H](O)[C@@H]1O | – |
| 0.4 | Nc1nc(=O)n([C@H]2C[C@H](O)[C@@H](CO)O2)cc1CNC[C@H]1O[C@@H](n2cnc3c(N)ncnc32)[C@H](O)[C@@H]1O | – |
